Laboratory results reported in patent US9688684B2, “Substituted tetrazolo[1,5-a]pyrazines as ROR-gamma inhibitors” (Merck Patent GmbH, priority 2013, dated 2017).

Legend:
[1] = target: RORγ Ligand binding domain (RORγ-LBD, aa 238-497, NP_001001523) (Homo sapiens (Human), UniProt P51449); test: ROR γ GAI4 Reporter Gene Assay (Mammalian one-hybrid, M1H) in 293T cells; type: cell-based
Source text: ROR γ GAI4 Reporter Gene Assay
A Mammalian one-hybrid system is used to perform a cell-based functional transactivation assay for detecting RORγ activity modulators.
The Mammalian-1-Hybrid is derived from the Mammalian-2-Hybrid setup. Whereas in the latter, the binding partners are defined in their role as interaction, transactivation and DNA-binding components, the Mammalian-1-Hybrid makes use of the fact that all mammalian cell types express a set of Nuclear Receptors and their associated cofactors. […] A Gal4 minimal promoter driven luciferase construct (pFR-Luc from Stratagene, containing a synthetic promoter with five tandem repeats of the yeast GAL4 binding sites controlling expression of the Photinus pyralis luciferase gene) is used as reporter. The Gal4-DBD-NR-LBD fusion protein by itself cannot initiate transcription and is dependent on the presence of cofactors present in the cellular system used.
In order to rule out cytotoxic and unspecific transcriptional compound effects a transfection with a firefly luciferase driven by the constitutive CMV promoter is performed in parallel.
After transfection 18 μl complete MEM medium containing 3% charcoal-dextran treated FBS is added as well as 4 μl test compounds (DMSO stocks prediluted in OptiMem (Invitrogen)) followed by incubation for 16-24 h at 37° C., 5% CO2 and 90% rH.
Firefly luciferase activity is measured using the Promega ONE-Glo™ Luciferase Assay System.

[2] = target: human RORγ ligand binding domain (GST-hRORγ-LBD) (Homo sapiens (Human), UniProt P51449); test: TR-FRET assay (biochemical cofactor interaction assay, GST-hRORγ-LBD / TRAP220 peptide)
Source text: RORγ is an orphan member of the nuclear receptor (NR) family displaying constitutive activity. The activity of nuclear receptors can be modulated by ligand-induced cofactor protein interactions. For example, agonist binding leads to recruitment of coactivator protein, and antagonist binding either blocks coactivator interaction or facilitates the recruitment of corepressors. […] The conformational change induced by ligand binding influences interactions with LXXLL motif peptides.
RORγ (t) is a thymus-specific isoform of RORγ which is widely expressed. It shares the same ligand binding domain (LBD) sequence with RORγ. Thus, a screen using the LBD will yield antagonists targeting both RORγ and RORγt.
In order to identify compounds which block activity of the human nuclear receptor Retinoid-related Orphan Receptor gamma (RORγ) a biochemical cofactor interaction assay based on the TR-FRET principle is performed. […] The ligand-binding domain (LBD) of RORγ is expressed as fusion protein with GST in […] cells using the vector pDEST15. Cells are lysed by lysozyme-treatment and sonication, and the fusion proteins purified over glutathione sepharose (Pharmacia) according to the manufacturers instructions. The strong constitutive interaction is disrupted upon binding of functional antagonists. The strength of the interaction is monitored by TR-FRET between streptavidine APC interacting with the biotinylated peptide and Europium-labelled Anti-GST.

Sequence of human RORγ ligand binding domain (GST-hRORγ-LBD) (P51449 269-508): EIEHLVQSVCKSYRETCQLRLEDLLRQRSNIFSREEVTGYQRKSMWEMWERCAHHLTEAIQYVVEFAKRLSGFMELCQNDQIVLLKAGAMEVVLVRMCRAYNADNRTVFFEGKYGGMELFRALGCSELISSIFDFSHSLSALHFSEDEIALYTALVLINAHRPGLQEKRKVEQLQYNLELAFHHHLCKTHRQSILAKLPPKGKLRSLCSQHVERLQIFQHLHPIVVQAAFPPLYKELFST
Sequence of RORγ Ligand binding domain (RORγ-LBD, aa 238-497, NP_001001523) (P51449 259-518): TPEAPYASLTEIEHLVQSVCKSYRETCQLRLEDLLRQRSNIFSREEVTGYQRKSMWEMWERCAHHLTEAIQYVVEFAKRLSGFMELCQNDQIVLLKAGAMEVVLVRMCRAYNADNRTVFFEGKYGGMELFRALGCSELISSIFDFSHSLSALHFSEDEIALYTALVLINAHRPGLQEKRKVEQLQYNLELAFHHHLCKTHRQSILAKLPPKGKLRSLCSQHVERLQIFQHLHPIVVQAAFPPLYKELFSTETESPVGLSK

SMILES	IC50 [1]	IC50 [2]
CC(C)c1nn(-c2ccccc2)cc1C1c2nnnn2CCN1Cc1cccs1 (racemic) [Compound 61, 8-(3-Isopropyl-1-phenyl-1H-pyrazol-4-yl)-7-thiophen-2-ylmethyl-5,6,7,8-tetrahydro-tetrazolo[1,5-a]pyrazine]	0.01 to 0.99 µM	0.01 to 0.99 µM
Fc1ccc(CN2CCn3nnnc3C2c2cccc(F)c2)cc1 (racemic) [Compound 91, 7-(4-Fluoro-benzyl)-8-(3-fluoro-phenyl)-5,6,7,8-tetrahydro-tetrazolo[1,5-a]pyrazine]	0.01 to 0.99 µM	0.99 to 9.9 µM
Cc1cccc(CN2CCn3nnnc3C2c2ccc(F)cc2)c1 (racemic) [Compound 93, 8-(4-Fluoro-phenyl)-7-(3-methyl-benzyl)-5,6,7,8-tetrahydro-tetrazolo[1,5-a]pyrazine]	9.9 to 40 µM	0.01 to 0.99 µM
Fc1ccc(C2c3nnnn3CCN2Cc2cccc(Br)c2)cc1 (racemic) [Compound 96, 7-(3-Bromo-benzyl)-8-(4-fluoro-phenyl)-5,6,7,8-tetrahydro-tetrazolo[1,5-a]pyrazine]	0.99 to 9.9 µM	0.01 to 0.99 µM
CC(C)c1nn(-c2ccccc2)cc1C1c2nnnn2CCN1Cc1cccs1 (single isomer, unassigned) [Compound 61-a, 8-(3-Isopropyl-1-phenyl-1H-pyrazol-4-yl)-7-thiophen-2-ylmethyl-5,6,7,8-tetrahydro-tetrazolo[1,5-a]pyrazine]	0.01 to 0.99 µM	0.01 to 0.99 µM
CC(C)c1nn(-c2ccccc2)cc1C1c2nnnn2CCN1Cc1cccs1 (single isomer, unassigned) [Compound 61-b, 8-(3-Isopropyl-1-phenyl-1H-pyrazol-4-yl)-7-thiophen-2-ylmethyl-5,6,7,8-tetrahydro-tetrazolo[1,5-a]pyrazine]	0.99 to 9.9 µM	9.9 to 40 µM
Fc1ccc(CN2CCn3nnnc3C2c2cccc(F)c2)cc1 (single isomer, unassigned) [Compound 91-b, 7-(4-Fluoro-benzyl)-8-(3-fluoro-phenyl)-5,6,7,8-tetrahydro-tetrazolo[1,5-a]pyrazine]	0.99 to 9.9 µM	0.99 to 9.9 µM
Cc1cccc(CN2CCn3nnnc3C2c2ccc(F)cc2)c1 (single isomer, unassigned) [Compound 93-a, 8-(4-Fluoro-phenyl)-7-(3-methyl-benzyl)-5,6,7,8-tetrahydro-tetrazolo[1,5-a]pyrazine]	0.99 to 9.9 µM	0.01 to 0.99 µM
Fc1ccc(C2c3nnnn3CCN2Cc2cccc(Br)c2)cc1 (single isomer, unassigned) [Compound 96-a, 7-(3-Bromo-benzyl)-8-(4-fluoro-phenyl)-5,6,7,8-tetrahydro-tetrazolo[1,5-a]pyrazine]	0.99 to 9.9 µM	0.01 to 0.99 µM
Fc1cccc(CN2CCn3nnnc3C2c2cccc(F)c2)c1 (centres unmarked) [Compound 38, 7-(3-Fluoro-benzyl)-8-(3-fluoro-phenyl)-5,6,7,8-tetrahydro-tetrazolo[1,5-a]pyrazine]	0.99 to 9.9 µM	0.99 to 9.9 µM
CC(C)c1nn(-c2ccccc2)cc1CN1CCn2nnnc2C1c1cccs1 (centres unmarked) [Compound 48, 7-(3-Isopropyl-1-phenyl-1H-pyrazol-4-ylmethyl)-8-thiophen-2-yl-5,6,7,8-tetrahydro-tetrazolo[1,5-a]pyrazine]	9.9 to 40 µM	0.01 to 0.99 µM
COc1ccc(OC)c(CN2CCn3nnnc3C2c2cn(-c3ccccc3)nc2C(C)C)c1 (centres unmarked) [Compound 54, 7-(2,5-Dimethoxy-benzyl)-8-(3-isopropyl-1-phenyl-1H-pyrazol-4-yl)-5,6,7,8-tetrahydro-tetrazolo[1,5-a]pyrazine]	9.9 to 40 µM	9.9 to 40 µM
CC(C)c1nn(-c2ccccc2)cc1C1c2nnnn2CCN1Cc1ccc2c(c1)OCO2 (centres unmarked) [Compound 58, 7-Benzo[1,3]dioxol-5-ylmethyl-8-(3-isopropyl-1-phenyl-1H-pyrazol-4-yl)-5,6,7,8-tetrahydro-tetrazolo[1,5-a]pyrazine]	0.99 to 9.9 µM	9.9 to 40 µM
CC(C)c1nn(-c2ccccc2)cc1C1c2nnnn2CCN1Cc1cccc(F)c1F (centres unmarked) [Compound 63, 7-(2,3-Difluoro-benzyl)-8-(3-isopropyl-1-phenyl-1H-pyrazol-4-yl)-5,6,7,8-tetrahydro-tetrazolo[1,5-a]pyrazine]	0.01 to 0.99 µM	9.9 to 40 µM
Brc1cccc(CN2CCn3nnnc3C2C2CCCCC2)c1 (centres unmarked) [Compound 65, 7-(3-Bromo-benzyl)-8-cyclohexyl-5,6,7,8-tetrahydro-tetrazolo[1,5-a]pyrazine]	9.9 to 40 µM	9.9 to 40 µM
COc1ccc(OC)c(CN2CCn3nnnc3C2c2cccc(F)c2F)c1 (centres unmarked) [Compound 71, 8-(2,3-Difluoro-phenyl)-7-(2,5-dimethoxy-benzyl)-5,6,7,8-tetrahydro-tetrazolo[1,5-a]pyrazine]	9.9 to 40 µM	9.9 to 40 µM
Cc1cccc(CN2CCn3nnnc3C2c2ccc3c(c2)OCCO3)c1 (centres unmarked) [Compound 95, 8-(2,3-Dihydro-benzo[1,4]dioxin-6-yl)-7-(3-methyl-benzyl)-5,6,7,8-tetrahydro-tetrazolo[1,5-a]pyrazine]	0.99 to 9.9 µM	0.01 to 0.99 µM
Cc1cccc(CN2CCn3nnnc3C2c2ccc(OC(C)C)cc2)c1 (centres unmarked) [Compound 99, 8-(4-Isopropoxy-phenyl)-7-(3-methyl-benzyl)-5,6,7,8-tetrahydro-tetrazolo[1,5-a]pyrazine]	0.99 to 9.9 µM	0.01 to 0.99 µM
Cc1cccc(C2c3nnnn3CCN2Cc2ccccc2)c1 (centres unmarked) [Compound 100, 7-Benzyl-8-m-tolyl-5,6,7,8-tetrahydro-tetrazolo[1,5-a]pyrazine]	9.9 to 40 µM	0.01 to 0.99 µM
Fc1cc(F)cc(C2c3nnnn3CCN2Cc2ccccc2)c1 (centres unmarked) [Compound 101, 7-Benzyl-8-(3,5-difluoro-phenyl)-5,6,7,8-tetrahydro-tetrazolo[1,5-a]pyrazine]	9.9 to 40 µM	0.01 to 0.99 µM
Fc1ccc(C2c3nnnn3CCN2Cc2ccccc2)cc1 (centres unmarked) [Compound 102, 7-Benzyl-8-(4-fluoro-phenyl)-5,6,7,8-tetrahydro-tetrazolo[1,5-a]pyrazine]	9.9 to 40 µM	0.01 to 0.99 µM
Clc1ccc(C2c3nnnn3CCN2Cc2cccs2)cc1 (centres unmarked) [Compound 106, 8-(4-Chloro-phenyl)-7-thiophen-2-ylmethyl-5,6,7,8-tetrahydro-tetrazolo[1,5-a]pyrazine]	9.9 to 40 µM	0.01 to 0.99 µM
Fc1cc(F)cc(C2c3nnnn3CCN2Cc2cccc(Br)c2)c1 (centres unmarked) [Compound 107, 7-(3-Bromo-benzyl)-8-(3,5-difluoro-phenyl)-5,6,7,8-tetrahydro-tetrazolo[1,5-a]pyrazine]	9.9 to 40 µM	0.01 to 0.99 µM
CC(C)c1nn(-c2ccccc2)cc1C1c2nnnn2CCN1C1CCCCC1 (centres unmarked) [Compound 114, 7-Cyclohexyl-8-(3-isopropyl-1-phenyl-1H-pyrazol-4-yl)-5,6,7,8-tetrahydro-tetrazolo[1,5-a]pyrazine]	9.9 to 40 µM	0.99 to 9.9 µM
CCn1cc(CN2CCn3nnnc3C2c2cn(-c3ccccc3)nc2C(C)C)cn1 (centres unmarked) [Compound 155, 7-(1-Ethyl-1H-pyrazol-4-ylmethyl)-8-(3-isopropyl-1-phenyl-1H-pyrazol-4-yl)-5,6,7,8-tetrahydro-tetrazolo[1,5-a]pyrazine]		9.9 to 40 µM
Cc1nn(C)c(C)c1CN1CCn2nnnc2C1c1cn(-c2ccccc2)nc1C(C)C (centres unmarked) [Compound 157, 8-(3-Isopropyl-1-phenyl-1H-pyrazol-4-yl)-7-(1,3,5-trimethyl-1H-pyrazol-4-ylmethyl)-5,6,7,8-tetrahydro-tetrazolo[1,5-a]pyrazine]		9.9 to 40 µM
